According to the supplement of paper PMC10307832:

What was measured:
Test in all cases: relative viability (nuclei count vs DMSO), 5 days (fraction); higher = more cells survive
NCI-H1437 = tested on: NCI-H1437
Procedure, shortened: (§1)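 Lung cancer cell lines, seeded in 1536-well plates, were treated the following day by pin tool with a single drug or with five library-drug doses (not always all listed) in √10 steps on top of a fixed anchor-drug dose. Cells were fixed and nuclei stained in one step after 5 days, and nuclei were counted. Relative viability is the nuclei count for treated wells divided by that for vehicle wells, reported as medians of duplicate plates.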

NCI-H1355 = tested on: NCI-H1355
Procedure, shortened: as §1

NCI-H2085 = tested on: NCI-H2085
Procedure, shortened: as §1

NCI-H838 = tested on: NCI-H838
Procedure, shortened: as §1

NCI-H1395 = tested on: NCI-H1395
Procedure, shortened: as §1

NCI-H2342 = tested on: NCI-H2342
Procedure, shortened: as §1

NCI-H1755 = tested on: NCI-H1755
Procedure, shortened: as §1

NCI-H1650 = tested on: NCI-H1650
Procedure, shortened: as §1

HCC-366 = tested on: HCC-366
Procedure, shortened: as §1

HCC-15 = tested on: HCC-15
Procedure, shortened: as §1

LCLC-103H = tested on: LCLC-103H
Procedure, shortened: as §1

NCI-H1734 = tested on: NCI-H1734
Procedure, shortened: as §1

NCI-H1651 = tested on: NCI-H1651
Procedure, shortened: as §1

NCI-H358 = tested on: NCI-H358
Procedure, shortened: as §1

BEN = tested on: BEN
Procedure, shortened: as §1

NCI-H441 = tested on: NCI-H441
Procedure, shortened: as §1

NCI-H2023 = tested on: NCI-H2023
Procedure, shortened: as §1

HCC-44 = tested on: HCC-44
Procedure, shortened: as §1

CAL-12T = tested on: CAL-12T
Procedure, shortened: as §1

EKVX = tested on: EKVX
Procedure, shortened: as §1

NCI-H1975 = tested on: NCI-H1975
Procedure, shortened: as §1

LOU-NH91 = tested on: LOU-NH91
Procedure, shortened: as §1

NCI-H460 = tested on: NCI-H460
Procedure, shortened: as §1

Clc1ccc(Nc2nnc(Cc3ccncc3)c3ccccc23)cc1 [Vatalanib] + O=C(CCCCCCC(=O)Nc1ccccc1)NO [Vorinostat] (partner 1 µM)
relative viability (NCI-H1437; first compound 0.04 µM): 0.836
relative viability (NCI-H1437; first compound 0.1265 µM): 0.851
relative viability (NCI-H1437; first compound 0.4 µM): 0.88
relative viability (NCI-H1437; first compound 1.265 µM): 0.616
relative viability (NCI-H1437; first compound 4 µM): 0.673
relative viability (NCI-H1355; first compound 0.04 µM): 0.684
relative viability (NCI-H1355; first compound 0.1265 µM): 0.691
relative viability (NCI-H1355; first compound 0.4 µM): 0.727
relative viability (NCI-H1355; first compound 1.265 µM): 0.57
relative viability (NCI-H1355; first compound 4 µM): 0.581
relative viability (NCI-H2085; first compound 0.04 µM): 0.868
relative viability (NCI-H2085; first compound 0.1265 µM): 0.796
relative viability (NCI-H2085; first compound 0.4 µM): 0.852
relative viability (NCI-H2085; first compound 1.265 µM): 0.747
relative viability (NCI-H2085; first compound 4 µM): 0.702
relative viability (NCI-H838; first compound 0.04 µM): 0.738
relative viability (NCI-H838; first compound 0.1265 µM): 0.761
relative viability (NCI-H838; first compound 0.4 µM): 0.775
relative viability (NCI-H838; first compound 1.265 µM): 0.62
relative viability (NCI-H838; first compound 4 µM): 0.694
relative viability (NCI-H1395; first compound 0.04 µM): 0.71
relative viability (NCI-H1395; first compound 0.1265 µM): 0.55
relative viability (NCI-H1395; first compound 0.4 µM): 0.6
relative viability (NCI-H1395; first compound 4 µM): 0.726
relative viability (NCI-H2342; first compound 0.04 µM): 0.747
relative viability (NCI-H2342; first compound 0.1265 µM): 0.714
relative viability (NCI-H2342; first compound 0.4 µM): 0.741
relative viability (NCI-H2342; first compound 1.265 µM): 0.762
relative viability (NCI-H2342; first compound 4 µM): 0.69
relative viability (NCI-H1755; first compound 0.04 µM): 0.799
relative viability (NCI-H1755; first compound 0.1265 µM): 0.891
relative viability (NCI-H1755; first compound 0.4 µM): 0.757
relative viability (NCI-H1755; first compound 1.265 µM): 0.759
relative viability (NCI-H1755; first compound 4 µM): 0.694
relative viability (NCI-H1650; first compound 0.04 µM): 0.555
relative viability (NCI-H1650; first compound 0.1265 µM): 0.517
relative viability (NCI-H1650; first compound 0.4 µM): 0.616
relative viability (NCI-H1650; first compound 1.265 µM): 0.473
relative viability (NCI-H1650; first compound 4 µM): 0.534
relative viability (HCC-366; first compound 0.04 µM): 0.361
relative viability (HCC-366; first compound 0.1265 µM): 0.434
relative viability (HCC-366; first compound 0.4 µM): 0.451
relative viability (HCC-366; first compound 1.265 µM): 0.254
relative viability (HCC-366; first compound 4 µM): 0.394
relative viability (HCC-15; first compound 0.04 µM): 0.853
relative viability (HCC-15; first compound 0.1265 µM): 0.836
relative viability (HCC-15; first compound 0.4 µM): 0.964
relative viability (HCC-15; first compound 1.265 µM): 0.801
relative viability (HCC-15; first compound 4 µM): 0.863
relative viability (LCLC-103H; first compound 0.04 µM): 0.776
relative viability (LCLC-103H; first compound 0.1265 µM): 0.765
relative viability (LCLC-103H; first compound 0.4 µM): 0.826
relative viability (LCLC-103H; first compound 1.265 µM): 0.738
relative viability (LCLC-103H; first compound 4 µM): 0.726
relative viability (NCI-H1734; first compound 0.04 µM): 0.804
relative viability (NCI-H1734; first compound 0.1265 µM): 0.812
relative viability (NCI-H1734; first compound 0.4 µM): 0.937
relative viability (NCI-H1734; first compound 1.265 µM): 0.761
relative viability (NCI-H1734; first compound 4 µM): 0.775
relative viability (NCI-H1651; first compound 0.04 µM): 0.506
relative viability (NCI-H1651; first compound 0.1265 µM): 0.606
relative viability (NCI-H1651; first compound 0.4 µM): 0.594
relative viability (NCI-H1651; first compound 1.265 µM): 0.524
relative viability (NCI-H1651; first compound 4 µM): 0.557
relative viability (NCI-H358; first compound 0.04 µM): 0.683
relative viability (NCI-H358; first compound 0.1265 µM): 0.719
relative viability (NCI-H358; first compound 0.4 µM): 0.686
relative viability (NCI-H358; first compound 1.265 µM): 0.713
relative viability (NCI-H358; first compound 4 µM): 0.632
relative viability (BEN; first compound 0.04 µM): 0.57
relative viability (BEN; first compound 0.1265 µM): 0.625
relative viability (BEN; first compound 0.4 µM): 0.594
relative viability (BEN; first compound 1.265 µM): 0.561
relative viability (BEN; first compound 4 µM): 0.61
relative viability (NCI-H441; first compound 0.04 µM): 0.907
relative viability (NCI-H441; first compound 0.1265 µM): 0.589
relative viability (NCI-H441; first compound 0.4 µM): 0.704
relative viability (NCI-H441; first compound 1.265 µM): 0.776
relative viability (NCI-H441; first compound 4 µM): 0.81
relative viability (NCI-H2023; first compound 0.04 µM): 0.674
relative viability (NCI-H2023; first compound 0.1265 µM): 0.688
relative viability (NCI-H2023; first compound 0.4 µM): 0.716
relative viability (NCI-H2023; first compound 1.265 µM): 0.5
relative viability (NCI-H2023; first compound 4 µM): 0.628
relative viability (HCC-44; first compound 0.04 µM): 1.11
relative viability (HCC-44; first compound 0.1265 µM): 1.08
relative viability (HCC-44; first compound 0.4 µM): 1.09
relative viability (HCC-44; first compound 1.265 µM): 1.04
relative viability (HCC-44; first compound 4 µM): 1.07
relative viability (CAL-12T; first compound 0.04 µM): 0.872
relative viability (CAL-12T; first compound 0.1265 µM): 0.714
relative viability (CAL-12T; first compound 0.4 µM): 0.734
relative viability (CAL-12T; first compound 1.265 µM): 0.737
relative viability (CAL-12T; first compound 4 µM): 0.784
relative viability (EKVX; first compound 0.04 µM): 0.773
relative viability (EKVX; first compound 0.1265 µM): 0.767
relative viability (EKVX; first compound 0.4 µM): 0.831
relative viability (EKVX; first compound 1.265 µM): 0.655
relative viability (EKVX; first compound 4 µM): 0.665
relative viability (NCI-H1975; first compound 0.04 µM): 0.674
relative viability (NCI-H1975; first compound 0.1265 µM): 0.691
relative viability (NCI-H1975; first compound 0.4 µM): 0.726
relative viability (NCI-H1975; first compound 1.265 µM): 0.66
relative viability (NCI-H1975; first compound 4 µM): 0.71
relative viability (LOU-NH91; first compound 0.04 µM): 0.939
relative viability (LOU-NH91; first compound 0.1265 µM): 0.874
relative viability (LOU-NH91; first compound 0.4 µM): 0.955
relative viability (LOU-NH91; first compound 1.265 µM): 0.783
relative viability (LOU-NH91; first compound 4 µM): 0.882
relative viability (NCI-H460; first compound 0.04 µM): 0.859
relative viability (NCI-H460; first compound 0.1265 µM): 0.636
relative viability (NCI-H460; first compound 0.4 µM): 0.765
relative viability (NCI-H460; first compound 1.265 µM): 0.702
relative viability (NCI-H460; first compound 4 µM): 0.61
